Test results as given in ChEMBL document CHEMBL5584217, “Synthesis, biological activity evaluation and mechanism of action of novel bis-isatin derivatives as potential anti-liver cancer agents” (Bioorg Med Chem Lett, 2024).
The source made the active and inactive calls. The rule behind the calls is not given here.

What was measured:
H22 = test: Antiproliferative activity against mouse H22 cells assessed as inhibition of cell growth incubated for 48 hrs by CCK-8 method; assay type: functional, cell-based; conditions: H22, 48 h
[1] = Antiproliferative activity against mouse AML12 cells assessed as inhibition of cell growth incubated for 48 hrs by CCK-8 method; assay type: toxicity, cell-based
Huh-7 = test: Antiproliferative activity against human Huh-7 cells assessed as inhibition of cell growth incubated for 48 hrs by CCK-8 method; assay type: functional, cell-based; conditions: Huh-7, 48 h
Hepa 1-6 = test: Antiproliferative activity against mouse Hepa1-6 cells assessed as inhibition of cell growth incubated for 48 hrs by CCK-8 method; assay type: functional, cell-based; conditions: Hepa1-6, 48 h
HuH-6 = test: Antiproliferative activity against human HuH-6 cells assessed as inhibition of cell growth incubated for 48 hrs by CCK-8 method; assay type: functional, cell-based; conditions: HuH-6, 48 h
HuH-1 [2] = test: Antiproliferative activity against human HuH-1 cells assessed as inhibition of cell growth incubated for 48 hrs by CCK-8 method; assay type: functional, cell-based; conditions: HuH-1, 48 h
MHCC97H = test: Antiproliferative activity against human MHCC97H cells assessed as inhibition of cell growth incubated for 48 hrs by CCK-8 method; assay type: functional, cell-based
HepG2 = test: Antiproliferative activity against human HepG2 cells assessed as inhibition of cell growth incubated for 48 hrs by CCK-8 method; assay type: functional, cell-based; conditions: HepG2, 48 h
HuH-1 [3] = test: Antitumor activity against human HuH-1 cells xenografted in NCG mouse model assessed as reduction in tumor cell density at 20 mg/kg, ip administered every other day for 14 days; assay type: functional, organism-based; conditions: time 14.0 day
HuH-1 [4] = test: Antitumor activity against human HuH-1 cells xenografted in NCG mouse model assessed as increase in tumor cell death at 20 mg/kg, ip administered every other day for 14 days; assay type: functional, organism-based; conditions: time 14.0 day
[5] = Toxicity in NCG mouse assessed as effect on LDH level at 15 mg/kg, ip measured after 14 days; assay type: organism-based; conditions: in vivo, 336 h, time 14 day
[6] = Toxicity in NCG mouse assessed as effect on MCH level at 15 mg/kg, ip measured after 14 days; assay type: organism-based; conditions: in vivo, 336 h, time 14 day
[7] = Toxicity in NCG mouse assessed as pathological change in spleen at 15 mg/kg, ip measured after 14 days by H and E staining based analysis; assay type: organism-based; conditions: in vivo, 336 h, time 14 day
[8] = Toxicity in NCG mouse assessed as effect on HGB level at 15 mg/kg, ip measured after 14 days; assay type: organism-based; conditions: in vivo, 336 h, time 14 day
[9] = Toxicity in NCG mouse assessed as effect on HCT level at 15 mg/kg, ip measured after 14 days; assay type: organism-based; conditions: in vivo, 336 h, time 14 day
HuH-1 [10] = test: Antitumor activity against human HuH-1 cells xenografted in NCG mouse model assessed as reduction in tumor size at 15 mg/kg, ip administered every other day for 14 days; assay type: functional, organism-based; conditions: time 14.0 day
HuH-1 [11] = test: Antitumor activity against human HuH-1 cells xenografted in NCG mouse model assessed as reduction in tumor cell density at 15 mg/kg, ip administered every other day for 14 days; assay type: functional, organism-based; conditions: time 14.0 day
[12] = Toxicity in NCG mouse assessed as effect on ALT level at 15 mg/kg, ip measured after 14 days; assay type: organism-based; conditions: in vivo, 336 h, time 14 day
[13] = Toxicity in NCG mouse assessed as effect on UREA level at 15 mg/kg, ip measured after 14 days; assay type: organism-based; conditions: in vivo, 336 h, time 14 day
HuH-1 [14] = test: Antitumor activity against human HuH-1 cells xenografted in NCG mouse model assessed as increase in tumor cell death at 15 mg/kg, ip administered every other day for 14 days; assay type: functional, organism-based; conditions: time 14.0 day
HuH-1 [15] = test: Antitumor activity against human HuH-1 cells xenografted in NCG mouse model assessed as reduction in tumor weight at 15 mg/kg, ip administered every other day for 14 days; assay type: functional, organism-based; conditions: time 14.0 day
[16] = Toxicity in NCG mouse assessed as effect on AST level at 15 mg/kg, ip measured after 14 days; assay type: organism-based; conditions: in vivo, 336 h, time 14 day
[17] = Toxicity in NCG mouse assessed as effect on ALB level at 15 mg/kg, ip measured after 14 days; assay type: organism-based; conditions: in vivo, 336 h, time 14 day
[18] = Toxicity in NCG mouse assessed as effect on MCV level at 15 mg/kg, ip measured after 14 days; assay type: organism-based; conditions: in vivo, 336 h, time 14 day
[19] = Toxicity in NCG mouse assessed as effect on RBC level at 15 mg/kg, ip measured after 14 days; assay type: organism-based, Erythrocyte; conditions: in vivo, 336 h, time 14 day
[20] = Toxicity in NCG mouse assessed as pathological change in lung at 15 mg/kg, ip measured after 14 days by H and E staining based analysis; assay type: organism-based; conditions: in vivo, 336 h, time 14 day
[21] = Toxicity in NCG mouse assessed as pathological change in tumor at 15 mg/kg, ip measured after 14 days by H and E staining based analysis; assay type: organism-based; conditions: in vivo, 336 h, time 14 day
[22] = Toxicity in NCG mouse assessed as pathological change in heart at 15 mg/kg, ip measured after 14 days by H and E staining based analysis; assay type: organism-based; conditions: in vivo, 336 h, time 14 day
[23] = Toxicity in NCG mouse assessed as pathological change in kidney at 15 mg/kg, ip measured after 14 days by H and E staining based analysis; assay type: organism-based; conditions: in vivo, 336 h, time 14 day
[24] = Toxicity in NCG mouse assessed as pathological change in liver at 15 mg/kg, ip measured after 14 days by H and E staining based analysis; assay type: organism-based; conditions: in vivo, 336 h, time 14 day
HuH-1 [25] = test: Induction of autophagy in human HuH-1 cells assessed as increase in LC3BI expression by […] based analysis; assay type: functional, cell-based
HuH-1 [26] = test: Induction of autophagy in human HuH-1 cells assessed as increase in ATG5 expression by […] based analysis; assay type: functional, cell-based
HuH-1 [27] = test: Induction of autophagy in human HuH-1 cells assessed as increase in LC3BII expression by […] based analysis; assay type: functional, cell-based
HuH-1 [28] = test: Induction of autophagy in human HuH-1 cells assessed as downregulation of P62 expression by […] based analysis; assay type: functional, cell-based

SMILES | IC50 (H22) | IC50 at 48 h [1] | IC50 (Huh-7) | IC50 (Hepa 1-6) | IC50 (HuH-6) | IC50 (HuH-1 [2]) | IC50 (MHCC97H) | IC50 (HepG2) | other results
COC(=O)[C@H](CCCCNC(=O)CN1C(=O)C(=O)c2cc(Cl)ccc21)NC(=O)CN1C(=O)C(=O)c2cc(Cl)ccc21 | 45.8 µM | > 100 µM | 29.9 µM | > 100 µM | > 100 µM | 26.4 µM | > 100 µM | > 100 µM | –
COC(=O)[C@H](CCCCNC(=O)CN1C(=O)C(=O)c2cc(OC)ccc21)NC(=O)CN1C(=O)C(=O)c2cc(OC)ccc21 | > 100 µM | > 100 µM | > 100 µM | > 100 µM | > 100 µM | > 100 µM | > 100 µM | > 100 µM | –
CNC(=O)c1cc(Oc2ccc(NC(=O)Nc3ccc(Cl)c(C(F)(F)F)c3)cc2)ccn1 [SORAFENIB] | 10.7 µM | – | 14.7 µM | – | – | 9.63 µM | – | – | Activity (HuH-1 [3]): Active; Activity (HuH-1 [4]): Active
COC(=O)[C@H](CCCCNC(=O)CN1C(=O)C(=O)c2cc(Br)ccc21)NC(=O)CN1C(=O)C(=O)c2cc(Br)ccc21 | 16.9 µM | > 100 µM | 8.27 µM | > 100 µM | > 100 µM | 17.1 µM | > 100 µM | > 100 µM | Activity [5]: Non-Toxic; Activity [6]: Non-Toxic; Activity [7]: Non-Toxic; Activity [8]: Non-Toxic; Activity [9]: Non-Toxic; Activity (HuH-1 [10]): Active; Activity (HuH-1 [11]): Active; Activity [12]: Non-Toxic; Activity [13]: Non-Toxic; Activity (HuH-1 [14]): Active; Activity (HuH-1 [15]): Active; Activity [16]: Non-Toxic; Activity [17]: Non-Toxic; Activity [18]: Non-Toxic; Activity [19]: Non-Toxic; Activity [20]: Non-Toxic; Activity [21]: Non-Toxic; Activity [22]: Non-Toxic; Activity [23]: Non-Toxic; Activity [24]: Non-Toxic
COC(=O)[C@H](CCCCNC(=O)CN1C(=O)C(=O)c2cc(C)ccc21)NC(=O)CN1C(=O)C(=O)c2cc(C)ccc21 | > 100 µM | > 100 µM | 32.9 µM | > 100 µM | > 100 µM | 35.1 µM | > 100 µM | > 100 µM | –
COC(=O)[C@H](CCCCNC(=O)CN1C(=O)C(=O)c2cc(F)ccc21)NC(=O)CN1C(=O)C(=O)c2cc(F)ccc21 | > 100 µM | > 100 µM | > 100 µM | > 100 µM | > 100 µM | > 100 µM | > 100 µM | > 100 µM | Activity (HuH-1 [25]): Active; Activity (HuH-1 [26]): Active; Activity (HuH-1 [27]): Active; Activity (HuH-1 [28]): Active
COC(=O)[C@H](CCCCNC(=O)CN1C(=O)C(=O)c2ccccc21)NC(=O)CN1C(=O)C(=O)c2ccccc21 | > 100 µM | > 100 µM | > 100 µM | > 100 µM | > 100 µM | > 100 µM | > 100 µM | > 100 µM | –
